Entries after “also recorded” stand apart in the source; their conditions may differ.
Tests used:
[1] = system: mammary gland #4-5 and brown adipose tissue of female rats; assay: NR diet in virgin female rats, mammary gland and brown adipose tissue weight; format: in vivo; details: NR diet vs normal chow
Protocol: FIGS. 3A-C. […] Adipose tissues of female rats on normal chow diet (NC) or normal chow with nicotinamide riboside (NR). FIG. 3A. Mammary gland #4-5 were isolated and the weight was recorded. […] FIG. 3B. Images of dissected mammary gland #4-5. FIG. 3C. Weight of brown adipose tissue (BAT). To determine if the effect of NR on females was a mouse-specific phenomenon, additional experiments were performed. Specifically, virgin female rats were fed either NC or NR diets prior to dissection.

[2] = system: mammary glands #4-5 of female mice; assay: Xylene extraction of fat from stained mammary glands of NR-fed female mice; format: in vivo; details: eight month-old female mice, NR diet six weeks
Source text: FIGS. 5A-B. NR-supplemented mammary tissue is partially resistant to xylene extraction. FIG. 5A. […] Eight month-old female mice were on NC or NR diet for six weeks. Mammary glands #4-5 were isolated, fixed, stained with Carmine/Alum stain and xylene was use to extract fat. […] FIG. 5B. NR-fed rats have mammary gland with a different fat composition. […] Eight month-old female mice were on NC or NR diet for six weeks. Mammary glands #4-5 were isolated, fixed, stained with Carmine/Alum stain and subjected to an extraction with xylene to remove fat.

mammary gland of rats = assay: Xylene clearing of mammary adipose tissue of NR-fed rats; format: in vivo
Source text: FIGS. 5A-B. NR-supplemented mammary tissue is partially resistant to xylene extraction. FIG. 5A. […] Eight month-old female mice were on NC or NR diet for six weeks. Mammary glands #4-5 were isolated, fixed, stained with Carmine/Alum stain and xylene was use to extract fat. […] FIG. 5B. NR-fed rats have mammary gland with a different fat composition.

[3] = system: mammary glands of virgin female mice; assay: NR oral supplementation in virgin female mice, mammary gland development; format: in vivo
Source text: FIGS. 2A-E. NR oral supplementation promotes mammary gland development in virgin female mice (non-lactating females). FIG. 2A. […] FIG. 2B. Carmine/Alum staining of mammary glands. FIG. 2C. Quantification of mammary gland ductal length can be assessed by taking the measurement of the left (L1), right (L2), top (L3) and bottom (L4) branchings expressed in cm. FIG. 2D. […] FIG. 2E.

mammary glands #4 and 5 = assay: NR diet for six weeks in eight month-old female and male mice, mammary gland weight; format: in vivo; details: NR diet six weeks vs NC
Protocol: FIG. 4. NR increases mammary gland tissue weight of female but not male mice. Eight month-old mice were put on NC or NR diet for six weeks. Mammary glands #4 and 5 were measured and plotted by normalizing to the body weight of each mouse. […] In FIG. 4, eight month-old mice were put on normal chow (NC) or NC+NR (NR) diets for six weeks. Mammary glands #4 and 5 were measured and plotted by normalizing to the body weight of each mouse.

[4] = system: mammary glands of lactating mice; assay: NR-supplemented diet in lactating female mice, mammary gland mass and Carmine/Alum staining; format: in vivo, C57BL/6N mice
Source text: FIGS. 1A-B. NR increases the mass of mammary glands of lactating mice. C57BL/6 female mice were fed normal chow (NC) diet and mated to a C57BL/6 male. After gestation and birth, females remained on NC or were on or a diet supplemented with 3 g/kg nicotinamide riboside chloride (NR). At day 14, the females were sacrificed and mammary glands 1-5 were removed for analysis. FIG. 1A. […] FIG. 1B. Mammary glands 4 and 5 isolated from lactating females were stained with Carmine/Alum staining.
The data are based on a trial with female C57BL/6N mice raised in 12 hour light:dark cycles on Teklad 2920X chow (NC). It was asked whether addition of NR chloride (3 g/kg of chow) to the diet of female mice would augment mammary tissue. Accordingly, for 12 weeks prior to mating with a single C57BL/6N male, females were on either NC (n=4) or NC+NR (n=4). Females were maintained on the same diet for 14 days post-partum.

[5] = system: mammary glands of female rodents; assay: NR-supplemented diet in adult female rodents, overall findings; format: in vivo, mice and rats
Protocol: As described herein, a series of experiments were performed to examine the effect of nicotinamide riboside (NR) on mammary tissue. It was determined that the provision of NR in the diet of female mice and female rats promoted mammary development (e.g., increases mammary gland tissue weight). […] These experiments show the unanticipated and potentially value effect of supplementing females with NR or other NAD precursors.

Q: How did the “weight of brown adipose tissue (BAT)” value ([1]; female rats) turn out when `NC(=O)c1ccc[n+]([C@@H]2O[C@H](CO)[C@@H](O)[C@H]2O)c1` [NR, nicotinamide riboside] was run?
A: increases the mass of mammary gland #4 and #5 and brown adipose tissue (BAT)

Q: What about the “weight of mammary gland #4-5” value ([1]; virgin female rats) of the same compound?
A: increased the size of mammary tissues in rats; also recorded: more mammary gland tissue

Q: What about the “fat composition of the mammary gland” value [2] of the same compound?
A: changes the fat composition of the mammary gland

Q: And the “fat remaining in mammary glands after xylene extraction” value ([2]; 1 week of incubation in xylene)?
A: more fat remaining

Q: What about the “clearing of mammary adipose tissue by xylene” value (mammary gland of rats) of the same compound?
A: poorly cleared by xylene

Q: What about the “mammary gland with beige fat” value ([3]; twelve week-old virgin female mice, NR supplementation for two weeks) of the same compound?
A: more mammary gland with beige fat

Q: What about the “surface area of mammary gland #4-5” value ([3]; virgin female mice, NR oral supplementation) of the same compound?
A: increases the surface area of mammary gland #4-5

Q: What about the “mammary gland ductal length measurements” value ([3]; virgin female mice, NR oral supplementation, L1-L4 branchings) of the same compound?
A: increases ductal length measurements

Q: And the “subcutaneous adipose tissue and epithelial duct branching” value ([3]; virgin mice, not exposed to males)?
A: significant increase of the subcutaneous adipose tissue and epithelial duct branching

Q: What about the “mammary gland #4 and 5 weight normalized to body weight” value (mammary glands #4 and 5; eight month-old female mice) of the same compound?
A: more mammary gland tissue in comparison to the NC group

Q: And the “mammary gland #4 and 5 weight normalized to body weight” value (mammary glands #4 and 5; eight month-old male mice)?
A: no significant increase in mammary tissue weight

Q: And the “mass of mammary glands” value ([4]; lactating C57BL/6 females, diet with 3 g/kg NR chloride vs normal chow, day 14 post-partum, mammary glands 1-5)?
A: more mammary tissue than those on normal chow; also recorded: more massive mammary glands

Q: What about the “lactating mammary tissue (Carmine/Alum staining)” value ([4]; lactating females, mammary glands 4 and 5, NR diet vs normal chow) of the same compound?
A: more lactating mammary tissue

Q: And the “development of beige or brown fat” value ([5]; NR supplementation, female rodents)?
A: leads to development of beige or brown fat

Q: And the “fat pad formation, epithelial branching, alveolar and lobule development of mammary glands” value ([5]; adult females, virginal or pregnant, diet supplemented with NR)?
A: increase in fat pad formation, epithelial branching, alveolar and lobule development
